According to the supplement of paper PMC6045584:
± gives the standard deviation of the averaged measurements.

Compound: CC[C@@]1(O)C(=O)OCc2c1cc1n(c2=O)Cc2cc3ccccc3nc2-1 [CAMPTOTHECIN]
Assay: surviving fraction relative to DMSO-only wells; higher = less growth inhibition
Conditions: 50 nM; exposure time: 5 days
How it was run: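 Each tumour cell line was screened three times, and only lines with replicate Pearson r >0.7 and median Z' >0.3 were kept. Cells in log phase were seeded at 250–500 per well in 384-well plates, left 24 hours, then exposed continuously for five days to inhibitors at 0.5, 1, 5, 10, 50, 100, 500 and 1000 nM. Viability was read as CellTiter-Glo luminescence, with surviving fraction normalised to the median of DMSO-only wells.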

| Test System | surviving fraction |
| --- | --- |
| SAOS2 BONE | 0.129 ± 0.006 |
| MDAMB436 BREAST | 0.2 ± 0.017 |
| 93VU HEADNECK | 0.464 ± 0.021 |
| KPD BONE | 0.29 ± 0.015 |
| SYO1 SYNOVIAL | 0.0272 ± 0.0011 |
| BT20 BREAST | 0.096 ± 0.0052 |
| SUM44 BREAST | 0.985 ± 0.12 |
| CAL120 BREAST | 0.182 ± 0.011 |
| CHLA90 AUTONOMIC GANGLIA | 0.173 ± 0.0053 |
| HCC1806 BREAST | 0.074 ± 0.0056 |
| HCC78 LUNG | 0.0137 ± 0.0031 |
| MFM223 BREAST | 0.754 ± 0.087 |
| SG43 HEADNECK | 0.624 ± 0.044 |
| HOS BONE | 0.1 ± 0.0059 |
| MDAMB468 BREAST | 0.158 ± 0.011 |
| SG27 HEADNECK | 0.724 ± 0.034 |

| Test System | surviving fraction |
| --- | --- |
| ZR751 BREAST | 0.266 ± 0.024 |
| HSSYII SYNOVIAL | 0.0273 ± 0.0023 |
| MG63 BONE | 0.0393 ± 0.0065 |
| HS57T BREAST | 0.192 ± 0.007 |
| SUM159 BREAST | 0.1303 ± 0.00058 |
| HCC1395 BREAST | 0.627 ± 0.029 |
| SUM149.B1*.S BREAST | 0.0407 ± 0.0027 |
| MDAMB453 BREAST | 0.43 ± 0.03 |
| SCC90 HEADNECK | 0.343 ± 0.056 |
| HMLE3 BREAST | 0.127 ± 0.026 |
| HCC70 BREAST | 0.443 ± 0.045 |
| LNCAP PROSTATE | 0.0637 ± 0.0064 |
| HCT15 LARGE INTESTINE | 0.0227 ± 0.0038 |
| MHM BONE | 0.462 ± 0.022 |
| VCAP PROSTATE | 0.412 ± 0.028 |

Same assay, conditions: 100 nM; exposure time: 5 days

| Test System | surviving fraction |
| --- | --- |
| SAOS2 BONE | 0.059 ± 0.005 |
| MDAMB436 BREAST | 0.177 ± 0.0068 |
| 93VU HEADNECK | 0.277 ± 0.043 |
| KPD BONE | 0.15 ± 0.016 |
| SYO1 SYNOVIAL | 0.0304 ± 0.00084 |
| BT20 BREAST | 0.0537 ± 0.0075 |
| SUM44 BREAST | 0.927 ± 0.096 |
| CAL120 BREAST | 0.105 ± 0.0043 |
| CHLA90 AUTONOMIC GANGLIA | 0.268 ± 0.0099 |
| HCC1806 BREAST | 0.044 ± 0.0017 |
| HCC78 LUNG | 0.0147 ± 0.0023 |
| MFM223 BREAST | 0.662 ± 0.041 |
| SG43 HEADNECK | 0.329 ± 0.04 |
| HOS BONE | 0.056 ± 0.005 |
| MDAMB468 BREAST | 0.0843 ± 0.0055 |
| SG27 HEADNECK | 0.928 ± 0.096 |

| Test System | surviving fraction |
| --- | --- |
| ZR751 BREAST | 0.223 ± 0.005 |
| HSSYII SYNOVIAL | 0.0507 ± 0.0042 |
| MG63 BONE | 0.024 ± 0.001 |
| HS57T BREAST | 0.149 ± 0.0066 |
| SUM159 BREAST | 0.0763 ± 0.0031 |
| HCC1395 BREAST | 0.57 ± 0.086 |
| SUM149.B1*.S BREAST | 0.0422 ± 0.0024 |
| MDAMB453 BREAST | 0.453 ± 0.015 |
| SCC90 HEADNECK | 0.253 ± 0.032 |
| HMLE3 BREAST | 0.0547 ± 0.0029 |
| HCC70 BREAST | 0.385 ± 0.015 |
| LNCAP PROSTATE | 0.0507 ± 0.0067 |
| HCT15 LARGE INTESTINE | 0.0337 ± 0.0038 |
| MHM BONE | 0.334 ± 0.017 |
| VCAP PROSTATE | 0.4023 ± 0.0023 |

Same assay, conditions: 500 nM; exposure time: 5 days

| Test System | surviving fraction |
| --- | --- |
| SAOS2 BONE | 0.0293 ± 0.0032 |
| MDAMB436 BREAST | 0.142 ± 0.018 |
| 93VU HEADNECK | 0.103 ± 0.018 |
| KPD BONE | 0.041 ± 0.0027 |
| SYO1 SYNOVIAL | 0.0254 ± 0.0012 |
| BT20 BREAST | 0.0213 ± 0.0015 |
| SUM44 BREAST | 0.326 ± 0.038 |
| CAL120 BREAST | 0.0285 ± 0.0023 |
| CHLA90 AUTONOMIC GANGLIA | 0.133 ± 0.033 |
| HCC1806 BREAST | 0.0193 ± 0.00058 |
| HCC78 LUNG | 0.013 ± 0.0027 |
| MFM223 BREAST | 0.296 ± 0.072 |
| SG43 HEADNECK | 0.256 ± 0.054 |
| HOS BONE | 0.0223 ± 0.00058 |
| MDAMB468 BREAST | 0.0373 ± 0.0067 |
| SG27 HEADNECK | 0.482 ± 0.055 |

| Test System | surviving fraction |
| --- | --- |
| ZR751 BREAST | 0.121 ± 0.0096 |
| HSSYII SYNOVIAL | 0.0363 ± 0.001 |
| MG63 BONE | 0.02 ± 0.001 |
| HS57T BREAST | 0.0707 ± 0.0025 |
| SUM159 BREAST | 0.03 ± 0.001 |
| HCC1395 BREAST | 0.421 ± 0.049 |
| SUM149.B1*.S BREAST | 0.0262 ± 0.0016 |
| MDAMB453 BREAST | 0.109 ± 0.016 |
| SCC90 HEADNECK | 0.04 ± 0.0076 |
| HMLE3 BREAST | 0.0203 ± 0.0015 |
| HCC70 BREAST | 0.119 ± 0.061 |
| LNCAP PROSTATE | 0.023 ± 0.0035 |
| HCT15 LARGE INTESTINE | 0.0207 ± 0.0021 |
| MHM BONE | 0.16 ± 0.016 |
| VCAP PROSTATE | 0.219 ± 0.034 |

Same assay, conditions: 1000 nM; exposure time: 5 days

| Test System | surviving fraction |
| --- | --- |
| SAOS2 BONE | 0.0267 ± 0.00058 |
| MDAMB436 BREAST | 0.141 ± 0.022 |
| 93VU HEADNECK | 0.061 ± 0.007 |
| KPD BONE | 0.0363 ± 0.0045 |
| SYO1 SYNOVIAL | 0.0321 ± 0.0019 |
| BT20 BREAST | 0.0257 ± 0.0025 |
| SUM44 BREAST | 0.231 ± 0.048 |
| CAL120 BREAST | 0.0287 ± 0.0014 |
| CHLA90 AUTONOMIC GANGLIA | 0.137 ± 0.027 |
| HCC1806 BREAST | 0.0223 ± 0.00058 |
| HCC78 LUNG | 0.016 ± 0.0027 |
| MFM223 BREAST | 0.303 ± 0.1 |
| SG43 HEADNECK | 0.143 ± 0.037 |
| HOS BONE | 0.0237 ± 0.00058 |
| MDAMB468 BREAST | 0.0367 ± 0.0025 |
| SG27 HEADNECK | 0.203 ± 0.025 |

| Test System | surviving fraction |
| --- | --- |
| ZR751 BREAST | 0.0797 ± 0.0025 |
| HSSYII SYNOVIAL | 0.0383 ± 0.0038 |
| MG63 BONE | 0.023 ± 0.001 |
| HS57T BREAST | 0.0653 ± 0.0081 |
| SUM159 BREAST | 0.0283 ± 0.00058 |
| HCC1395 BREAST | 0.344 ± 0.09 |
| SUM149.B1*.S BREAST | 0.0295 |
| MDAMB453 BREAST | 0.091 ± 0.0027 |
| SCC90 HEADNECK | 0.0327 ± 0.0051 |
| HMLE3 BREAST | 0.0213 ± 0.00058 |
| HCC70 BREAST | 0.0573 ± 0.0076 |
| LNCAP PROSTATE | 0.0203 ± 0.0011 |
| HCT15 LARGE INTESTINE | 0.0277 ± 0.0038 |
| MHM BONE | 0.121 ± 0.0075 |
| VCAP PROSTATE | 0.158 ± 0.069 |
